Each structure is given as a SMILES string. ≈ marks a conversion by molar mass, not a printed value. Bounds are passed on as bounds.

A short description of data set [1]: Metabolic stability in rat liver microsomes assessed as compound degradation measured after 30 mins. The data set is classed as ADME, Microsome. As to conditions: read-out: Drug degradation. (Microsomes from liver hold many membrane-bound enzymes, among them those of drug oxidation.)
The nature of data set [2]: Permeability in MDCK cells assessed as drug transport measured over 1 hr in presence of P-gp. The format is ADME, cell-based, Canis lupus familiaris. As to conditions: dog.
Data set [3] in a line: Thermodynamic solubility of the compound […] at pH 7.4. The data set is classed as physicochemical. Particulars: read-out: Therm_solubility.
Data set [4] can be described thus: Inhibition of mouse KHK-C.
Data set [5] in a line: Clearance in dog hepatocytes measured per 10^6 cells. The data set is classed as ADME, cell-based, Canis lupus familiaris, Hepatocyte. As to conditions: read-out: CLH.
Data set [6] can be described thus: Clearance in rat hepatocytes measured per 10^6 cells. As to conditions: read-out: CLH. The format is ADME, cell-based, Hepatocyte.
Another data set concerns Hepatocyte. Briefly: Cytotoxicity against rat Primary hepatocyte. The data set is classed as toxicity, cell-based. Particulars: hepatocytes.
Data set [7] is described as follows: Clearance in human hepatocytes measured per 10^6 cells. The format is ADME, cell-based, Hepatocyte. As to conditions: read-out: CLH.
Data set [8] deals with T1, Ketohexokinase (Homo sapiens, UniProt P50053).
T1 sequence (P50053 whole entry): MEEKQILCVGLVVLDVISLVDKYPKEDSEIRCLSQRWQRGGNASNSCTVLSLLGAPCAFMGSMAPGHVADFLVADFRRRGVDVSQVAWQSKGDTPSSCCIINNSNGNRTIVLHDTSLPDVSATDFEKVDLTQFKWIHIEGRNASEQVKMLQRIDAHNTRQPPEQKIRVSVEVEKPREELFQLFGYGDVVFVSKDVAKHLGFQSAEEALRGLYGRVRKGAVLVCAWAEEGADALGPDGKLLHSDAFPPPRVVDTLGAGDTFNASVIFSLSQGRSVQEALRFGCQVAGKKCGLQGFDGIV
Briefly: Inhibition of human KHK-A preincubated for 15 mins followed by substrate addition and measured after 20 mins in presence of ATP by Rapidfire MS analysis.

Data set [9] deals with T1, Ketohexokinase. Briefly: Inhibition of KHK in human HepG2 cells incubated for 3 hrs by Rapidfire MS analysis. The format is cell-based.
The nature of data set [10]: Metabolic stability in mouse liver microsomes assessed as compound degradation measured after 30 mins. The data set is classed as ADME, Microsome. Particulars: read-out: Drug degradation.
Data set [11] concerns the target T1, Ketohexokinase. Description: Inhibition of human KHK-C preincubated for 15 mins followed by substrate addition and measured after 20 mins in presence of ATP by Rapidfire MS analysis.
Data set [12] in a line: Metabolic stability in human liver microsomes assessed as compound degradation measured after 30 mins. The data set is classed as ADME, Microsome. Particulars: read-out: Drug degradation.
Data set [13] is described as follows: Metabolic stability in dog liver microsomes assessed as compound degradation measured after 30 mins. The data set is classed as ADME, Canis lupus familiaris, Microsome. Particulars: read-out: Drug degradation.
Data set [14] is described as follows: Inhibition of mouse KHK-A.

What is called IC50 is the concentration that inhibits the measured activity by half. Take `C[C@H]1CCN1c1nc(-c2cnn(C3CNC3)c2)cc(C(F)(F)F)n1`: the metabolised at 0.5 h worked out at 11% in data set [1], 21% in data set [10], 7% in [12] and 20% in data set [13]. The Drug transport in [2] is on record as 12%. Moreover, the solubility thermodynamic in data set [3] turned out to be 450 µg/mL (≈ 1330 µM). In addition, the IC50 in data set [4] is 0.003 µM; at Ketohexokinase [8], 0.004 µM; on Ketohexokinase [9] it was 0.006 µM; on Ketohexokinase [11] it was 0.005 µM; in [14], 0.013 µM. In addition, the hepatocyte CLint was 4.4 µL/min/1e6 cells in data set [5], 11 µL/min/1e6 cells in data set [6] and 2.5 µL/min/1e6 cells in data set [7]. Besides, in the data set with Hepatocyte, the LC20 turned out to be 48 µM.
For `C[C@H]1CCN1c1nc(-c2cnn(CCN(C)C)c2)cc(C(F)(F)F)c1C#N`, the metabolised at 0.5 h in data set [1] was determined as 83%; in data set [10] it was 100%; in data set [12], 76%; in data set [13], 100%. In data set [3], the solubility thermodynamic is under 1 µg/mL. Besides, the IC50 in data set [4] worked out at 0.044 µM; at Ketohexokinase [8], 0.022 µM; against Ketohexokinase [9], 0.082 µM; at Ketohexokinase [11], 0.028 µM; in data set [14] it was 0.0045 µM. The same molecule registered an LC20 in the data set with Hepatocyte of over 50 µM.
As to `C[C@H]1CCN1c1nc(-c2cnn(CCO)c2)cc(C(F)(F)F)c1C#N`, the metabolised at 0.5 h in [1] was 99%; in [10] it was 99%; in [12] it was 52%; in data set [13], 95%. Further, the solubility thermodynamic in data set [3] was determined as 1 µg/mL (≈ 2.85 µM). Besides, the IC50 turned out to be 0.007 µM in data set [4], 0.005 µM at Ketohexokinase [8], 0.048 µM against Ketohexokinase [9] and 0.004 µM in data set [14].
With `C[C@H]1CCN1c1nc(-c2cnn(C3CCN(C(=O)CN)CC3)c2)cc(C(F)(F)F)c1C#N`, the metabolised at 0.5 h in data set [1] is 5%; in data set [10] it was 18%; in [12] it was 0%; in data set [13], 0%. In addition, in data set [3], the solubility thermodynamic is 12 µg/mL (≈ 26.8 µM). Further, the IC50 came out at 0.01 µM in data set [4]; 0.006 µM on Ketohexokinase [8]; 0.016 µM against Ketohexokinase [9]; 0.006 µM at Ketohexokinase [11]; 0.003 µM in data set [14]. In addition, in the data set with Hepatocyte, the LC20 was 16 µM.
On to `C[C@H]1CCN1c1nc(-c2cnn(C3CN(C)C3)c2)cc(C(F)(F)F)n1`, for which the metabolised at 0.5 h in data set [1] came out at 86%; in data set [10], 87%; in data set [12], 20%; in data set [13], 100%. In addition, in data set [2], the Drug transport stood at 22%. Moreover, in [3], the solubility thermodynamic was determined as 11 µg/mL (≈ 31.2 µM). Also, the IC50 in [4] was 0.002 µM; at Ketohexokinase [8], 0.005 µM; on Ketohexokinase [9], 0.003 µM; at Ketohexokinase [11], 0.004 µM. Besides, the hepatocyte CLint in data set [5] stood at 49 µL/min/1e6 cells; in data set [6] it was 29 µL/min/1e6 cells; in data set [7], 5 µL/min/1e6 cells. This molecule also gave an LC20 in the data set on Hepatocyte of over 50 µM.
`CC(=O)N1CCC(n2cc(-c3cc(C(F)(F)F)c(C#N)c(N4CC[C@@H]4C)n3)cn2)CC1`: the metabolised at 0.5 h in data set [1] was 30%; in data set [10] it was 66%; in [12] it was 45%; in data set [13], 32%. Further, the solubility thermodynamic in data set [3] was found to be 7 µg/mL (≈ 16.2 µM). Further, the IC50 in [4] was found to be 0.045 µM; at Ketohexokinase [9], 0.096 µM; in data set [14] it was 0.019 µM.
On to `C[C@H]1CCN1c1nc(-c2cnn(CC(=O)N3CCN(C)CC3)c2)cc(C(F)(F)F)c1C#N`, for which the metabolised at 0.5 h in data set [1] turned out to be 52%; in data set [10], 93%; in [12], 60%; in [13], 95%. Besides, the solubility thermodynamic in data set [3] was 7 µg/mL (≈ 15.6 µM). In addition, the IC50 in data set [4] was 0.007 µM; at Ketohexokinase [8], 0.009 µM; on Ketohexokinase [9], 0.036 µM; on Ketohexokinase [11], 0.006 µM; in data set [14], 0.004 µM. The same molecule returned an LC20 in the data set with Hepatocyte of 18 µM.
`C[C@H]1CCN1c1nc(-c2cnn(C3CCN(C)CC3)c2)cc(C(F)(F)F)c1C#N`: the metabolised at 0.5 h in [1] turned out to be 33%; in data set [10], 86%; in data set [12] it was 11%; in data set [13] it was 36%. The solubility thermodynamic in data set [3] was 11 µg/mL (≈ 27.2 µM). For the same molecule, the IC50 in data set [4] worked out at 0.014 µM; on Ketohexokinase [8] it was 0.007 µM; at Ketohexokinase [9], 0.02 µM; on Ketohexokinase [11], 0.006 µM; in data set [14], 0.004 µM.
On to `C[C@H]1CCN1c1nc(-c2cnn(C3CNC3)c2)cc(C(F)(F)F)c1C#N`, for which the metabolised at 0.5 h in [1] was determined as 26%; in data set [10], 13%; in data set [12], 15%; in [13], 27%. Besides, the solubility thermodynamic in data set [3] was found to be 40 µg/mL (≈ 110 µM). Moreover, the IC50 came out at 0.005 µM in [4]; 0.015 µM on Ketohexokinase [8]; 0.002 µM at Ketohexokinase [9]; 0.015 µM at Ketohexokinase [11]; 0.008 µM in data set [14]. The molecule also yielded an LC20 in the data set with Hepatocyte of 31 µM.
In the case of `C[C@H]1CCN1c1nc(-c2cnn(C3CCNCC3)c2)cc(C(F)(F)F)n1`, the metabolised at 0.5 h in [1] stood at 17%; in [10], 8%; in data set [12], 2%; in data set [13] it was 15%. For the same molecule, the solubility thermodynamic in data set [3] amounted to 410 µg/mL (≈ 1120 µM). The IC50 was 0.159 µM in data set [4]; 0.008 µM on Ketohexokinase [8]; 0.026 µM at Ketohexokinase [9]; 0.015 µM at Ketohexokinase [11]; 0.052 µM in [14]. This molecule also had an LC20 in the data set on Hepatocyte of 23 µM.
For the molecule `C[C@H]1CCN1c1nc(-c2cnn(C3CCOCC3)c2)cc(C(F)(F)F)c1C#N`, the metabolised at 0.5 h in data set [1] turned out to be 98%; in data set [10] it was 98%; in data set [12], 49%; in [13], 98%. The solubility thermodynamic in data set [3] is 31 µg/mL (≈ 79.2 µM). For the same molecule, the IC50 in [4] turned out to be 0.061 µM; on Ketohexokinase [8], 0.033 µM; against Ketohexokinase [9], 0.118 µM; on Ketohexokinase [11], 0.038 µM; in data set [14], 0.04 µM. In addition, the LC20 with Hepatocyte was over 50 µM.
For the molecule `C[C@H]1CCN1c1nc(-c2cnn(C3CCN(CCO)CC3)c2)cc(C(F)(F)F)c1C#N`, the metabolised at 0.5 h came to 38% in data set [1], 32% in [10], 26% in data set [12] and 57% in data set [13]. In data set [3], the solubility thermodynamic stood at 38 µg/mL (≈ 87.5 µM). Besides, the IC50 was determined as 0.008 µM in [4], 0.004 µM at Ketohexokinase [8], 0.015 µM on Ketohexokinase [9] and 0.006 µM at Ketohexokinase [11]. In addition, the LC20 with Hepatocyte was 17 µM.
As to `C[C@H]1CCN1c1nc(-c2cn[nH]c2)cc(C(F)(F)F)c1C#N`, the metabolised at 0.5 h turned out to be 81% in data set [1], 100% in [10], 52% in data set [12] and 98% in [13]. For the same molecule, the Drug transport in data set [2] was determined as 20%. In addition, the solubility thermodynamic in [3] amounted to 3 µg/mL (≈ 9.76 µM). Further, the IC50 in data set [4] is 0.019 µM; on Ketohexokinase [9], 0.034 µM; in data set [14] it was 0.006 µM. Further, the hepatocyte CLint worked out at 150 µL/min/1e6 cells in [5], 30 µL/min/1e6 cells in [6] and 49 µL/min/1e6 cells in [7]. This molecule had an LC20 in the data set with Hepatocyte of over 50 µM.

Source of the values: ChEMBL document CHEMBL5375962 (J Med Chem, 2023).
